Laboratory results as given in PubChem BioAssay (NCI).
“And” between values parts separate entries of the source, which are not always exact repeats. Equal entries are not always repeated.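 Protocol summary: plate cells (96-well), add compound at 5 concentrations, incubate 48 h, interpolate endpoints linearly. At the GI50, growth is halved. TGI: concentration producing complete growth inhibition.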

These compounds were tested on MDA-MB-468 breast (assay: NCI tumour cell line growth inhibition, 48 h).

Structure (SMILES) | GI50 | TGI
Clc1ccc(-c2ccc(CNCC3CCNCC3)o2)c(-c2ccccc2)c1 | 1570 nM | 3250 nM
C=CC(=O)N1CC2(CCC(n3nc(-c4ccc(Oc5ccccc5)cc4)c4c(N)ncnc43)CC2)C1 | 244 nM | 1620 nM
CC(C)OC(=O)Nc1ccc(-c2nc(-c3cccc(OCCN4CCOCC4)c3)c(-c3ccnc(Br)c3)[nH]2)cc1 | 2010 nM | 5300 nM
CCCc1n(Cc2ccc3ccccc3c2)c2ccccc2[n+]1Cc1ccc2ccccc2c1 | 130 nM | 716 nM
CC(=O)N1CCN([C@H]2CCC[C@@H](NC(=O)c3cc4c(F)ccc(C)c4[nH]3)C2)CC1 | 9060 nM | 37200 nM
COC(=O)C(=Cc1ccccc1[N+](=O)[O-])C(=O)OC | 5030 nM | 28200 nM
CC[C@H](Nc1cc(C)nc(N)n1)c1nc2cccc(NCc3ccc(C(=O)NO)cc3)c2c(=O)n1-c1ccccc1 | 1460 nM | 3240 nM
CC(=O)O[C@H]1C(=O)[C@@]2(C)[C@H]([C@H](OC(=O)c3ccccc3)[C@]3(O)C[C@H](OC(=O)[C@H](OC(=O)OC[C@@H]4COC(C)(C)O4)[C@@H](NC(=O)c4ccccc4)c4ccccc4)C(C)=C1C3(C)C)[C@]1(OC(C)=O)CO[C@@H]1C[C@@H]2O | 28 nM | 
COc1ccc(C2C(C#N)=C(N)Oc3c2sc2c(C)cccc32)cc1 (centres undefined) | 214 nM | 641 nM
C[C@@H]1CN(c2ccc3ncc(C#Cc4cncc(C(=O)Nc5ccc(CN6CCN(C)CC6)c(C(F)(F)F)c5)c4)n3n2)C[C@H](C)O1 | 35.5 nM | 136 nM
C[C@]12CC[C@@H]3c4ccc(O)cc4CC[C@H]3[C@@H]1CC[C@@H]2NS(=O)(=O)c1cccc(OC(F)(F)F)c1 | 2610 nM | 8010 nM
COc1cc(C(=O)/C=C/c2c(C)n([O-])c3ccc(C(F)(F)F)cc3[n+]2=O)cc(OC)c1OC | 1590 nM | 3490 nM
C=CCSSC1N=CNc2nc[nH]c21 (centres undefined) | 319 nM | 14700 nM
CCOC(=O)Nc1nc2cc(OC)c(OC)c(OC)c2s1 | > 100000 nM | > 100000 nM
COc1ccc(C(O)c2cc3c(N)c(C(=O)Nc4ccc(Br)cc4)sc3nc2C)cc1 (centres undefined) | 2190 nM | 9090 nM
Cc1cc2nc3c4cc(C=O)ccc4n(CCN(C)C)c3nc2cc1C | 1160 nM | 3210 nM
CCOC(=O)c1ccc2c(c1)c1c(C)c3cnccc3c(C)c1n2C | 289 nM | 962 nM
FC(F)(F)c1cc(Nc2cccc(Oc3ccc(NC4=NCCN4)nc3)c2)ccc1Cl | 1610 nM | 3440 nM

Structure (SMILES) | GI50 | TGI
Cn1cc(C2=C(c3cn(C)c4ccc(OCc5ccccc5)cc34)C(=O)NC2=O)c2ccccc21 | > 25000 nM | > 25000 nM
COC(=O)/C=C1/SC(=Nc2ccc(C(F)(F)F)cc2)N(CCc2c[nH]c3ccc(O)cc23)C1=O | 2110 nM | 5720 nM
Nc1nonc1-c1nc2cnccc2n1C1CCCCC1 | 6940 nM | > 25000 nM
CC/C(=C(\c1ccc(Cl)cc1)c1ccc(OCCN2CCCCC2)cc1)c1ccc(O)cc1 | 1650 nM | 3320 nM
CN1CCN(Cc2ccc(NC(=O)c3cncc(C#Cc4cnc5ccc(N6CCN(C)CC6)nn45)c3)cc2C(F)(F)F)CC1 | 1380 nM | 2760 nM
Cc1ccc2cc3c(N)c4c(C)ccc(C)c4nc3nc2c1 | 1470 nM | 3730 nM
COC(=O)c1ccc2[nH]c(O)c(C(=Nc3ccc(N(C)C(=O)CN4CCN(C)CC4)cc3)c3ccc(OC)cc3)c2c1 | 1600 nM | 3350 nM
O=C1C=C(Nc2ccc([N+](=O)[O-])cc2)c2ccccc2C1=O | 3050 nM | 13400 nM
CCCOC(=O)c1ccc2c(c1)[N+](=O)C(C(=O)c1ccccc1)=C(C(F)(F)F)[N+]2=O | 1710 nM | 3510 nM
CCN(CC)CCNc1ccc(C)c2sc3ccccc3c(=O)c12 (tested in a mixture with another compound) | 2060 nM and 1980 nM | 4220 nM and 4300 nM
COc1ccc(/C=C/C(=O)c2ccc(NC(=O)CSc3nnc(-c4ccc(OC)c(OC)c4)n3-c3ccccc3)cc2)cc1 | 1960 nM | 4550 nM
O=C(/C=C/c1cccc(O)c1)c1cccc(-n2cc(-c3ccc(Cl)cc3)[nH]c2=O)c1 | 1700 nM | 3830 nM
Cc1ccc2c(c1)c(C1=C(c3cn(C)c4ccccc34)C(=O)NC1=O)cn2C | 1030 nM | > 12600 nM
O=C(Nc1ccc(OCc2nnc(-c3ccc(Cl)cc3)o2)c(F)c1)Nc1ccc(Cl)c(Cl)c1 | 2990 nM | 17700 nM
CC#CC#Cc1cccc(=O)o1 | 1710 nM | 5320 nM
CC(=O)Nc1cccc(C#Cc2cncnc2Nc2ccc(OCc3cccc(F)c3)c(Cl)c2)n1 | 557 nM | > 6260 nM
COC12COC(=O)C1C(c1ccc3c(c1)OCO3)c1cc3c(cc1O2)OCO3 (centres undefined) | 23000 nM | > 100000 nM
